# Test results from patent US20250295608A1, “PHARMACEUTICAL COMPOSITIONS AND METHODS FOR TREATING OSTEOARTHRITIS” (INSIGNIA PHARMACEUTICALS, LLC, priority 2024, published 2025).
# Entries after “also recorded” stand apart in the source; their conditions may differ.
# Key:
# arachidonic acid (AA) = assay: Arachidonic acid in IL-1β-stimulated osteoarthritic synoviocytes; format: cell-based, human; conditions: IL-1β 1 ng/mL, 3 hours; cell lysates
# Procedure: Early concentrations of arachidonic acid (AA) present in primary human synoviocytes from patients with osteoarthritis that were stimulated with 1 ng/mL final concentration interleukin 1-beta (B) for 3 hours in the presence of varying concentrations of Dex and DA in view of controls are depicted in FIG. 32. The concentrations of AA in FIG. 32 were normalized to total protein content from the cell lysates using bicinchoninic acid (BCA).
# prostaglandin D2 (PGD2) = assay: IL-1β-induced PGD2 release in osteoarthritic human synoviocytes; format: cell-based; conditions: IL-1β 0.5 ng/mL
# Cyclooxygenase-2 (COX-2) = biological target: T1, Cyclooxygenase-2 (COX-2) (Homo sapiens, UniProt P35354); assay: COX-2 inhibitor screen; format: biochemical; conditions: any of the concentrations tested
# T1 sequence (P35354 18-604): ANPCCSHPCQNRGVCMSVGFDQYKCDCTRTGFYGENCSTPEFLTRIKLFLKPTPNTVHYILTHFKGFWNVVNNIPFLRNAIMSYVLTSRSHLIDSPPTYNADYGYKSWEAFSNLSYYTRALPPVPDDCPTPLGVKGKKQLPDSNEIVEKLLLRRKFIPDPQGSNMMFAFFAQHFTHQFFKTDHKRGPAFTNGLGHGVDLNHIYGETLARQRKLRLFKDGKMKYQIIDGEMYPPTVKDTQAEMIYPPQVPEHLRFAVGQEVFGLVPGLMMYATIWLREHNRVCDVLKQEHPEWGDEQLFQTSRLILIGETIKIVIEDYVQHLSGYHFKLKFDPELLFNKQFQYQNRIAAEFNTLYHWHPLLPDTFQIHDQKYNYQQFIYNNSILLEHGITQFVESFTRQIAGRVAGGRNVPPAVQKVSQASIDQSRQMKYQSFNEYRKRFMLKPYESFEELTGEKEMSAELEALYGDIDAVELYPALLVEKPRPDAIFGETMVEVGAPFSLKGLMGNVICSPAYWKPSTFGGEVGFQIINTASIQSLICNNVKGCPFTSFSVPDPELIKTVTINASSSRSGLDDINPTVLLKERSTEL
# Description: Celecoxib (Celebrex) was used as a positive control for COX-2.
# SOX9 = SOX9 relative expression in osteoarthritic chondrocytes (qRT-PCR, normalized to GAPDH); format: cell-based, human
# [1] = test system: interleukin-18, tumor necrosis factor, interleukin-8, and interleukin-6; assay: Other cytokines in two-hit stimulated THP1 macrophages; format: cell-based, human; conditions: dose dependent; data not shown
# PGE2 = assay: IL-1β-induced PGE2 in osteoarthritic human synoviocytes; format: cell-based; conditions: for PGE2 release: 200 nanomolar DA or 500 ng/mL IL-1RA, pretreatment 5 min, 1 h or 2 h, IL-1β 1 ng/mL for 10 minutes or 1 hour
# Procedure: FIG. 31A depicts early concentrations of PGE2 present in primary […] of varying concentrations of Dex and DA in view of controls. The concentrations in FIG. 31A were measured at hour three.
# FIG. 31B is a bar graph depicting PGE2 release from human osteoarthritic synoviocytes treated with media, 200 nanomolar DA, or 500 nanograms/milliliter of IL-1 Receptor Antagonist (IL-1RA) for the specified pretreatment times at the bottom of each panel (5 minutes, 1 hour, or 2 hours, and then stimulated with 1 nanogram/milliliter IL-1β for either 10 minutes or 1 hour, as indicated. PGE2 in picograms/milliliter was released at detectable levels in each of the media treated samples, including the short 10-minute IL-1β stimulation conditions, implicating low level activation caused by a change of media. The media controls within each panel of treatments released increased PGE2 compared to DA treated cells. Cells were also treated with IL-IRA which inhibits IL-1β by binding […], effectively blocking IL-1β signaling. […] DA is able to incorporate into the cell membrane_and the immediate inhibition of signaling may reflect the ability of DA to change the biophysical properties of the cell membrane.
# FIG. 33 illustrates two bar graphs that depict the concentrations of PGE2 inside of the cell versus PGE2 that was secreted into the cell culture media. Specifically, the bar graph labeled “Intracellular” illustrates the concentrations of PGE2 inside of the cell and the bar graph labeled “Supernatent” illustrates the concentration of PGE2 that was secreted into the cell culture media. Synoviocytes were stimulated with IL-1β for 6 hours and then cell culture media harvested separately along with collecting cell lysates. […] Specifically, treating osteoarthritic HSF cells with 1 ng/ml IL-1β final concentration causes the cells to secrete large amounts of PGE2 into the cell culture media. […] To test this, the PGE2 concentrations inside of the cells and in the cell culture media were measured to compare them directly to each other. […] Thus, without being bound by theory, it is believed that DA binds to or interacts with MRP4 proteins and prevents MRP4 from successfully transporting PGE2.
# prostaglandin I2 (PGI2) = assay: PGI2 in IL-1β-stimulated osteoarthritic synoviocytes; format: cell-based, human; conditions: IL-1β 1 ng/ml, 24 hours
# Procedure: FIG. 25 is a bar graph that depicts the concentration of prostaglandin I2 (PGI2) present in primary human synoviocytes from patients with osteoarthritis that were stimulated with 1 ng/ml final concentration of IL-1β for 24 hours in the presence of varying concentrations of DA and Dex in view of controls. PGI2 concentration response mirrored PGE2 concentrations after DA treatment. […] It is noted that prostaglandin H2 (PGH2) was also tested and was not detected in either cell culture media or from cell lysates. Without being bound by theory, it is believed that PGH2 is an intermediate and is (near) immediately converted into downstream prostaglandins and therefore levels of PGH2 are not detectable.
# [2] = test system: IL-1β-induced PGE2 release; assay: IL-1β-induced PGE2 release from normal human chondrocytes (competitive EIA); format: cell-based; conditions: for inhibition at 10 µM: Homo sapiens, Chondrocyte
# MMP13 = MMP13 relative expression in osteoarthritic chondrocytes (qRT-PCR); format: cell-based, human; conditions: for Observed Relative expression of MMP13: 0.1% HA, 0.1 uM Dex
# type I collagen (Col1a1) = assay: Col1a1 relative expression in osteoarthritic chondrocytes (qRT-PCR); format: cell-based; conditions: passage 5 human osteoarthritic chondrocytes, 27 days
# Procedure: To evaluate the biological ramifications of the SOX9 to RUNX2 regulation mentioned above, delta-delta relative gene expression was assessed against medium controls, with normalization to GAPDH for both Col2a1 and Col1a1 in the samples tested with reference to Example 15. […] Moreover, treatment with 100 mM Lac increased collagen expression (49.88+4.31 and 1.63+0.20 for Col2a1 and Col1a1, respectively; FIGS. 51 and 52).
# [3] = test system: type II collagen (Col2a1); assay: Col2a1 relative expression in osteoarthritic chondrocytes (qRT-PCR); format: cell-based, human
# [4] = test system: matrix metalloproteinase 12 (MMP12); assay: MMP12 mRNA in NHDF, qRT-PCR; format: cell-based, human; conditions: IL-1β 0.1 ng/ml, 24 hours; 100 mM Lac, 0.1 mM Dxp
# Procedure: (§1) After 24 hours, total mRNA was isolated and delta-delta Cp relative expression was calculated versus untreated medium controls, normalized to the housekeeping gene, GAPDH. Statistical analysis was then conducted via t-test.
# Elastin (ELN) = assay: ELN mRNA in normal human dermal fibroblasts (NHDF), qRT-PCR; format: cell-based; conditions: IL-1β 0.1 ng/ml, 24 hours; 100 mM Lac, 0.1 mM Dxp; n=3
# Procedure: as §1
# Aggrecan (ACAN) = assay: ACAN relative expression in osteoarthritic chondrocytes (qRT-PCR); format: cell-based; conditions: passage 5 human osteoarthritic chondrocytes, 27 days
# Description: Delta-delta relative gene expression was employed to determine ACAN regulation in the 27-day samples referenced in Examples 15 and 16.
# RUNX2 = RUNX2 relative expression in osteoarthritic chondrocytes (qRT-PCR)
# Procedure: Examples of the present disclosure were conducted to evaluate the expression of key chondrocyte markers in the presence of test compounds. High passage and low passage chondrocytes were prepared where in both cases, primary human chondrocytes were cultured as confluent monolayers on tissue culture plates. For the high passage chondrocytes, fibroblast-like human osteoarthritic chondrocytes were used. The cells were cultured for an extended period before investigation (passage 13).
# When indicated, the cells were also cultured with TGF-β3 at a final concentration of 10 ng/ml.
# The data is presented as GAPDH normalized relative expression of key markers versus unstimulated controls.
# The culture mediums were replenished weekly by withdrawing about half of the volume and replacing them with warmed mediums supplemented as needed. After 27 days, total RNA was extracted and qRT-PCR was carried out with primer sets for SOX9, RUNX2, and GAPDH.
# SOX9 versus RUNX2 = assay: Relative expression of SOX9 versus RUNX2 in osteoarthritic chondrocytes; format: cell-based, human; conditions: for expression of SOX9 compared to RUNX2: passage 5 human osteoarthritic chondrocytes, 27 days
# [5] = test system: matrix metalloproteinase 3 (MMP3); assay: MMP3 mRNA in NHDF, qRT-PCR; format: cell-based, human; conditions: IL-1β 0.1 ng/ml, 24 hours; 100 mM Lac, 0.1 mM Dxp
# Procedure: as §1
# IL-1β release = assay: Two-hit (LPS then ATP) inflammasome activation, IL-1β release from THP1 macrophages; format: cell-based, human; conditions: with 25 nanomolar Dex
# Description: A two-hit model of inflammasome activation in THP1 macrophages was developed that entails an overnight stimulation with LPS followed by a second proinflammatory stimulus, extracellular ATP, which drives inflammasome assembly and subsequent IL-1β release from the cells into the media.
# In three independent experiments, THP1 macrophages stimulated by the two-hit model of inflammasome activation released IL-1β in control conditions.
# [6] = high passage, dedifferentiated osteoarthritic chondrocytes, TGF-β3, 14 days
# [7] = low passage osteoarthritic chondrocytes, 7, 14, 28 days
# [8] = pre-incubation 24 hours, 24-hour harvest, 25 uM Dec, 28 mM Lac, 10 uM LA, singlet
# [9] = rescue (added after overnight IL-1β activation), 24-hour harvest, 25 uM Dec, 28 mM Lac, 10 uM LA, singlet
# [10] = rescue, 96-hour harvest, 25 uM Dec, 28 mM Lac, 10 uM LA, singlet
# [11] = 100 millimolar Lac with 10 ng/mL TGF-B3, 14 days, micromass cultures
# [12] = 100 millimolar Lac, 14 days, monolayer cultures
# [13] = passage 5 human osteoarthritic chondrocytes, 27 days
compound,measurement,setting,value
"CCCCCCCCCC(=O)O [DA, decanoic acid]",concentration of AA normalized to total protein,arachidonic acid (AA),lower concentrations of AA than the Dex samples; also recorded: lower than that of the control with IL-1β
same,concentrations inhibiting PGD2 release,prostaglandin D2 (PGD2),above 1 micromolar
same,inhibition of COX-2 activity,Cyclooxygenase-2 (COX-2),no observed inhibition
same,SOX9 expression,SOX9; [6],increased SOX9 transcription
same,"expression of interleukin-18, tumor necrosis factor, interleukin-8, and interleukin-6",[1],reduced the expression
same,PGE2 release,PGE2,blocked the low-level activation seen in media controls
same,concentrations inhibiting PGE2 release,PGE2; IL-1β 0.5 ng/mL,above 1 micromolar
same,PGE2 inside of the cell,"PGE2; IL-1β 1 ng/ml, 6 hours, cell lysates",causes PGE2 to build up intracellularly
same,PGE2 secreted into the cell culture media,"PGE2; IL-1β 1 ng/ml, 6 hours, supernatant",causes PGE2 secretion to be abrogated
same,increase in potency of DA,PGE2; by 100 picomolar Dex,2.2 ×
same,secreted PGI2 levels,prostaglandin I2 (PGI2),decreases secreted PGI2 levels
CCCCCCCCCC(=O)O [DA/Dec],SOX9 expression,SOX9; [6],increased expression of SOX9
"C[C@@H]1C[C@H]2[C@@H]3CCC4=CC(=O)C=C[C@]4(C)[C@@]3(F)[C@@H](O)C[C@]2(C)[C@@]1(O)C(=O)CO [Dex, dexamethasone, reference compound]","concentration with statistical significance, PGE2 release","[2]; IL-1β, 48 h",100 picomolar
"C[C@@H]1C[C@H]2[C@@H]3CCC4=CC(=O)C=C[C@]4(C)[C@@]3(F)[C@@H](O)C[C@]2(C)[C@@]1(O)C(=O)COP(=O)(O)O [Dxp, dexamethasone phosphate, reference compound]",SOX9 expression,SOX9; [6],decreased expression of SOX9
same,SOX9 expression,SOX9; [7],temporal decrease in expression of SOX9
same,MMP13 transcription,MMP13; [7],reduce MMP13 transcription
"O=C(O)CCCCC1CCSS1 (stereo not drawn) [LA, α-lipoic acid]",inhibition at 10 µM,"[2]; 96 h, rescue, 96-hour harvest, 25 uM Dec, 28 mM Lac, 10 uM LA, singlet",33%
same,inhibition at 10 µM,[2]; [8],-59%
same,SOX9 expression,SOX9; [6],increased SOX9 transcription; also recorded: increases SOX9 relative expression
"CC(O)C(=O)O (centres unmarked) [Lac, lactate]",inhibition of PGE2 release,"[2]; 100 millimolar Lac, 0.5 ng/mL IL-1β, 48 h",complete inhibition
same,"concentration with statistically significant effect, PGE2 release","[2]; IL-1β, 48 h",≥ 10 millimolar
same,inhibition of PGE2 release,[2]; [8],−139%
same,inhibition of PGE2 release,[2]; [9],64%
same,inhibition of PGE2 release,[2]; [10],27%
same,relative expression of Col1a1 versus medium controls,type I collagen (Col1a1),1.63+0.20 fold
same,increase in SOX9,SOX9; [11],9 fold
same,increase in relative expression of SOX9,SOX9; [12],8 fold
same,increase in SOX9 transcription,"SOX9; high passage osteoarthritic chondrocytes, TGF-B, 14 days, 100 mm LA, 28 mM Lac",2 fold
same,SOX9 expression,SOX9; [6],increased SOX9 transcription; also recorded: increased expression of SOX9
same,SOX9 expression,SOX9; [7],temporal increase in SOX9
same,relative expression of SOX9 versus medium controls,"SOX9; passage 5 human osteoarthritic chondrocytes, 27 days, 50 micromolar Dec, 0.1 micromolar Dxp, 100 millimolar Lac",6.34+2.46 fold
same,increase in Col2a1,[3]; [11],88 fold
same,increase in collagen,"[3]; 100 millimolar Lac, 14 days, micromass pellets",11 fold
same,increase in relative expression of Col2a1,[3]; [12],1600 fold
same,increase in Col2a1 compared to controls,"[3]; high passage osteoarthritic chondrocytes, TGF-B, 14 days, 28 mM Lac",30 fold
same,relative expression of Col2a1,"[3]; low passage osteoarthritic chondrocytes, day 28",elevated Col2a1 relative expression
same,relative expression of Col2a1 versus medium controls,[3]; [13],49.88+4.31 fold
same,relative expression of MMP12,[4],2.2 ± 0.8
same,relative expression of ELN,Elastin (ELN),0.86+3
same,relative expression of ACAN,Aggrecan (ACAN),3.81+0.77 fold
same,RUNX2 expression,RUNX2; [7],temporal decrease in RUNX2; also recorded: temporally reduced RUNX2 expression
same,relative expression of RUNX2 versus medium controls,RUNX2; [13],−2.51+1.33
same,ratio of SOX9/RUNX2,SOX9 versus RUNX2; [7],temporally increased
same,expression of SOX9 compared to RUNX2,SOX9 versus RUNX2,25.14+12.71
same,relative expression of MMP3,[5],1.5 ± 0.8
"CCCCCCCCCC(=O)[O-].[Na+] [decanoate, sodium decanoate]",inhibition of PGE2 release,"[2]; added at the same time as IL-1β, 24-hour harvest, 25 uM Dec, singlet",53%
same,inhibition of PGE2 release,"[2]; added at the same time as IL-1β, 96-hour harvest, 25 uM Dec, singlet",76%
same,inhibition of PGE2 release,[2]; [8],41%
same,inhibition of PGE2 release,"[2]; pre-incubation, 96-hour harvest, 25 uM Dec, singlet",75%
same,inhibition of PGE2 release,[2]; [9],72%
same,inhibition of PGE2 release,[2]; [10],57%
same,increase in potency of sodium decanoate,IL-1β release,4.6 ×
same,expression of SOX9 compared to RUNX2,SOX9 versus RUNX2,1.80+0.47
"IL-1RA: IL-1 Receptor Antagonist, blocks IL-1β signaling [reference compound]",PGE2 release,PGE2,consistently higher than PGE2 levels in DA treated cells
hyaluronic acid [HA],Observed Relative expression of MMP13,MMP13; 14-day micromass pellet culture,−1.6 fold
same,Observed Relative expression of MMP13,MMP13; 28-day monolayer culture,1.0 fold
